In patent publication US20060029544A1, “Receptor-binding cyclic peptides and methods of use” (The Regents of the University of California Office of …, priority 2004, published 2006):
Where two headings read alike, the source gives them in different places.

Assays:
[1] = system: A375M, a human melanoma which expresses αvβ3 integrin; experiment: PET imaging (ECAT 951R) of mice bearing A375M tumors; format: in vivo; conditions: 30 minutes after injection
Procedure: (§1) In vivo biodistribution studies were performed in mice using A375M, a human melanoma which expresses αvβ3 integrin. MF1 nu/nu mice were given subcutaneous injections of A375M cells into the left inguinal region. Once tumors reached 4-10 mm in size, mice (n=5 mice per time point) were injected with 50 kBq of [^18F]-C7 and sacrificed at 15, 30, and 60 minutes after injection. A second group of animals (n=3) was injected with 50 kBq of [^18F]-C7, sacrificed at 30minutes after injection, and imaged using an ECAT 951R whole body PET scanner.

[2] = system: A375M, a human melanoma which expresses αvβ3 integrin; experiment: In vivo biodistribution in mice bearing A375M tumors; conditions: mouse
Procedure: as §1

αvβ5 integrin = target: T1, αvβ5 integrin (Homo sapiens, UniProt P06756+P18084); experiment: ELISA: biotinylated vitronectin binding to captured soluble αvβ5-mFc in the presence of RGD peptides
T1 construct: chimeras comprising the extracellular domain of αvβ3, αvβ5, α5β1, and αIIbβ3 linked to the Fc domain of either mouse IgG; purchased Celltech plc (supplied, no catalogue number); host or cells: unpurified hybridoma / tissue culture supernatant from secreting cells
Text: (§2) Four different soluble integrins were supplied by Celltech plc. Soluble forms of αvβ3, αvβ5, α5β1, and αIIbβ3 integrin were generated by constructing chimeras comprising the extracellular domain of αvβ3, αvβ5, α5β1, and αIIbβ3 linked to the Fc domain of either mouse IgG (αvβ3-mFc, αvβ5-mFc, and αIIbβ3-mFc) or human IgG (α5β1-hFc) as described by Stephens et al., Cell Adhes. Commun., 7:377-390 (2000) and Coe et al., J. Biol. Chem., 276:35854-35866 (2001). Since the four soluble integrin chimeras were supplied either as purified proteins (αvβ3-mFc and α5β1-hFc) or as unpurified hybridoma supernatants (αIIbβ3-mFc and αvβ5-mFc), it was necessary to use two types of ELISAs. […] In one type of ELISA (FIGS. 2A and 2B), the immobilized component is a 50 kDa fragment of fibronectin. In the second type of ELISA (FIGS. 2C and 2D), the immobilized component is a goat anti-mFc antibody that is used to capture chimeric proteins so that the RGD binding site of the integrin is maximally exposed. Each three-sided box in FIG. 2 represents a single well of a 96-well plate, and the components are listed in the sequence of their addition to the assay. The immobilized component at the bottom of the well is bound to the well by electrostatic interactions.
To analyze the affinity and selectively of RGD peptides for αIIbβ3 and αvβ5, 96-well ELISA plates were coated with anti-murine Fc antibody at 5 μg/ml in PBS, 100 μl per well and left overnight at 4° C. The plates were washed with PBS using a Denley Wellwash 4 Mk 2. Washing was repeated twice with a 400 μl wash per well. 200 μl/well of blocking buffer was then added for 1 hour followed by a repeat washing with PBS. 100 μl of tissue culture supernatant from cells secreting soluble αIIbβ3-mFc or αvβ5-mFc, diluted 1:2 in conjugate buffer, was added to each well. Plates were incubated with shaking for 1 hour followed by two washes with PBS. 100 μl of an RGD peptide (at concentrations of 200, 20, and 2 μM), followed by either 100 μl of biotinylated fibrinogen (at 1 μg/ml in conjugate buffer) or 100 μl of biotinylated vitronectin (at 2 μg/ml in conjugate buffer) were added to each well and incubated for 2 hours with shaking. After incubation, the plates were washed with PBS as described above. 100 μl of neutravidin-peroxidase was added to each well and the plates were incubated for 30 minutes with shaking, followed by two washes with PBS. 100 μl of TMB substrate was added to each well and the plates were shaken during color development. Plates were read using a plate spectrophotometer at 630 nm.
(§3) Two negative and two positive controls were used in both types of ELISAs. For example, the negative controls were wells that contained 50 μl of an active control peptide, integrin, and biotinylated ligand or 50 μl of the active control peptide and 50 μl of buffer. These negative control wells typically develop little to no color. […] These wells typically develop the maximum amount of color.
(§4) FIGS. 3-6 illustrate the percent binding of the vitronectin, fibronectin, or fibrinogen ligand to αvβ5, α5β1, αIIbβ3, or αvβ3 integrin in the presence of RGD peptides (i.e., linear (A), cyclic (B), or 4-[^19F]-fluorobenzoyl cyclic (C)) at different concentrations, with 100% maximum signal being the signal obtained in the absence of the peptide.

α5β1 integrin = target: T2, α5β1 integrin (Homo sapiens, UniProt P05556+P08648); experiment: ELISA: soluble α5β1-hFc binding to immobilized 50 kDa fibronectin fragment in the presence of RGD peptides
T2 construct: chimeras comprising the extracellular domain of αvβ3, αvβ5, α5β1, and αIIbβ3 linked to the Fc domain of either mouse IgG; purchased Celltech plc (supplied, no catalogue number)
Text: as §2
To analyze the affinity and selectively of RGD peptides for αvβ3 and α5β1, 96-well ELISA plates were coated with 100 μl of a 5 μg/ml of the 50 kDa fragment of fibronectin in PBS per well and left overnight at 4° C. The plates were washed with PBS using a Denley Wellwash 4 Mk 2. Washing was repeated twice with a 400 μl wash per well. 200 μ/well of blocking buffer (i.e., to prevent non-specific binding of proteins) was then added for 1 hour followed by a repeat washing with PBS. RGD peptides were then added at a maximum concentration of 200 μM and a preliminary screen was performed at three concentrations, 200,20, and 2 μM. 100 μl of an RGD peptide was added to each well and each assay was performed in triplicate. Purified soluble αvβ3-mFc or purified α5β1-hFc was diluted to 2 μg/ml and 15 ng/ml, respectively, in conjugate buffer and 100 μl was added to each well. The plates were incubated for 2 hours with shaking using a Luckham R100 Rotatest at approximately 150 rpm. After incubation, the plates were washed with PBS as previously described and a labeled antibody was added. For the αvβ3 assay, a horseradish peroxidase (HRP)-labeled F(ab′)2 fragment of goat anti-mouse IgG Fc was diluted 1:2000 in conjugate buffer and 100 μl was added to each well. For the α5β1 assay, an HRP-labeled F(ab′)2 fragment of goat anti-human IgG Fc was diluted 1:2000 in conjugate buffer and 100 μl was added to each well. Plates were incubated for 30 minutes with shaking followed by 2 washes with PBS. 100 μl of TMB substrate was added to each well and plates were shaken during a 10 minute color development. Plates were read using a plate spectrophotometer at 630 nm.
as §3, §4

αIIbβ3 integrin = target: T3, αIIbβ3 integrin (Homo sapiens, UniProt P05106+P08514); experiment: ELISA: biotinylated fibrinogen binding to captured soluble αIIbβ3-mFc in the presence of RGD peptides
T3 construct: chimeras comprising the extracellular domain of αvβ3, αvβ5, α5β1, and αIIbβ3 linked to the Fc domain of either mouse IgG; purchased Celltech plc (supplied, no catalogue number); host or cells: unpurified hybridoma / tissue culture supernatant from secreting cells
Text: as §2
The plates were washed with PBS using a Denley Wellwash 4 Mk 2. Washing was repeated twice with a 400 μl wash per well. 200 μl/well of blocking buffer was then added for 1 hour followed by a repeat washing with PBS. 100 μl of tissue culture supernatant from cells secreting soluble αIIbβ3-mFc or αvβ5-mFc, diluted 1:2 in conjugate buffer, was added to each well. […] After incubation, the plates were washed with PBS as described above. 100 μl of neutravidin-peroxidase was added to each well and the plates were incubated for 30 minutes with shaking, followed by two washes with PBS. 100 μl of TMB substrate was added to each well and the plates were shaken during color development. Plates were read using a plate spectrophotometer at 630 nm.
(§5) Two negative and two positive controls were used in both types of ELISAs.
as §4

αvβ3 integrin = target: T4, αvβ3 integrin (Homo sapiens, UniProt P05106+P06756); experiment: ELISA: soluble αvβ3-mFc binding to immobilized 50 kDa fibronectin fragment in the presence of RGD peptides; conditions: Table 2, no unit printed (b200 gives same values in μM)
T4 construct: chimeras comprising the extracellular domain of αvβ3, αvβ5, α5β1, and αIIbβ3 linked to the Fc domain of either mouse IgG; purchased Celltech plc (supplied, no catalogue number)
Text: as §2
The plates were washed with PBS using a Denley Wellwash 4 Mk 2. Washing was repeated twice with a 400 μl wash per well. […] Plates were read using a plate spectrophotometer at 630 nm.
as §5, §4

T1 sequence (P06756 31-992 limits assumed): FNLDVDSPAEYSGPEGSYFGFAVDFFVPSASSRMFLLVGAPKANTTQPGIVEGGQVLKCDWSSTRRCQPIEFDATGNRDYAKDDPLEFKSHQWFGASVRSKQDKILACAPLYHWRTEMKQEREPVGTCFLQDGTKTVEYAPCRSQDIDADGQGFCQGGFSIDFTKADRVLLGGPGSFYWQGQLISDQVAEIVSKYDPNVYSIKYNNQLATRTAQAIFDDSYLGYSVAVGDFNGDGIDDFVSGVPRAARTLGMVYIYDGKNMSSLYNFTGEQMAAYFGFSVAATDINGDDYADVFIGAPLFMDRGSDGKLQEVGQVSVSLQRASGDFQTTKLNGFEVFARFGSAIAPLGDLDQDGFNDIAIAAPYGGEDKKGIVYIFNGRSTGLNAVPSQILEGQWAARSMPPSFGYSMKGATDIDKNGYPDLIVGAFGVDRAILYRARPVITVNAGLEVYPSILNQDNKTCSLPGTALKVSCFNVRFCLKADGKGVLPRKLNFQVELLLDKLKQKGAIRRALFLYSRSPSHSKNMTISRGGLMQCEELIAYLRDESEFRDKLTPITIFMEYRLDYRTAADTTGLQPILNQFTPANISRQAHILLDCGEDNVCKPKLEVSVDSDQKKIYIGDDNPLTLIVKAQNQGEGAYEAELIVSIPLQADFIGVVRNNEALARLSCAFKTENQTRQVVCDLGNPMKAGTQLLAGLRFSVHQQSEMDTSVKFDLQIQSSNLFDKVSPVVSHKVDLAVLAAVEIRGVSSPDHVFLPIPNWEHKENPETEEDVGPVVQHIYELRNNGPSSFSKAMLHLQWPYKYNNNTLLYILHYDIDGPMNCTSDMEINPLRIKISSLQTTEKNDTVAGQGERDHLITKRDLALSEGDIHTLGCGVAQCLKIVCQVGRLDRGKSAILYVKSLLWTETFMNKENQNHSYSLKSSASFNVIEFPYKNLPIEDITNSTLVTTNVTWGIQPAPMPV
T1 sequence (P18084 24-719 limits assumed): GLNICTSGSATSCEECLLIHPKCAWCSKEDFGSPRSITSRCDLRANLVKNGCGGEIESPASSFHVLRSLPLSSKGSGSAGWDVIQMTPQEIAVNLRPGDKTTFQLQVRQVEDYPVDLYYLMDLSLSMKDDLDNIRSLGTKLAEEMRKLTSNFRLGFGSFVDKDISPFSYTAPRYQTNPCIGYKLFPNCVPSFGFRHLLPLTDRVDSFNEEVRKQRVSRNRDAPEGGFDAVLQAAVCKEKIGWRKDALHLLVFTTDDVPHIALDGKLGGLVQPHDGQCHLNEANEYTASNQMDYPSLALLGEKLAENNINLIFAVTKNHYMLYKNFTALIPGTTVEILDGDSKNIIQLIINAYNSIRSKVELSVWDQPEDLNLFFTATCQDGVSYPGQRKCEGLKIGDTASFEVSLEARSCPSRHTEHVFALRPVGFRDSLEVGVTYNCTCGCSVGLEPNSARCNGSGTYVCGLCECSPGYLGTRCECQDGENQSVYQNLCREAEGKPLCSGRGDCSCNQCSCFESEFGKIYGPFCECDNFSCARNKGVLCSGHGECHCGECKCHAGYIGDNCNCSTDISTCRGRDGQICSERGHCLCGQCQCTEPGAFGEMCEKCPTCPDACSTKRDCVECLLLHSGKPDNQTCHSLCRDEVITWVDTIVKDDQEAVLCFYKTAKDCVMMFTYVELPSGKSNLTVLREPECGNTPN
T3 sequence (P08514 32-993 limits assumed): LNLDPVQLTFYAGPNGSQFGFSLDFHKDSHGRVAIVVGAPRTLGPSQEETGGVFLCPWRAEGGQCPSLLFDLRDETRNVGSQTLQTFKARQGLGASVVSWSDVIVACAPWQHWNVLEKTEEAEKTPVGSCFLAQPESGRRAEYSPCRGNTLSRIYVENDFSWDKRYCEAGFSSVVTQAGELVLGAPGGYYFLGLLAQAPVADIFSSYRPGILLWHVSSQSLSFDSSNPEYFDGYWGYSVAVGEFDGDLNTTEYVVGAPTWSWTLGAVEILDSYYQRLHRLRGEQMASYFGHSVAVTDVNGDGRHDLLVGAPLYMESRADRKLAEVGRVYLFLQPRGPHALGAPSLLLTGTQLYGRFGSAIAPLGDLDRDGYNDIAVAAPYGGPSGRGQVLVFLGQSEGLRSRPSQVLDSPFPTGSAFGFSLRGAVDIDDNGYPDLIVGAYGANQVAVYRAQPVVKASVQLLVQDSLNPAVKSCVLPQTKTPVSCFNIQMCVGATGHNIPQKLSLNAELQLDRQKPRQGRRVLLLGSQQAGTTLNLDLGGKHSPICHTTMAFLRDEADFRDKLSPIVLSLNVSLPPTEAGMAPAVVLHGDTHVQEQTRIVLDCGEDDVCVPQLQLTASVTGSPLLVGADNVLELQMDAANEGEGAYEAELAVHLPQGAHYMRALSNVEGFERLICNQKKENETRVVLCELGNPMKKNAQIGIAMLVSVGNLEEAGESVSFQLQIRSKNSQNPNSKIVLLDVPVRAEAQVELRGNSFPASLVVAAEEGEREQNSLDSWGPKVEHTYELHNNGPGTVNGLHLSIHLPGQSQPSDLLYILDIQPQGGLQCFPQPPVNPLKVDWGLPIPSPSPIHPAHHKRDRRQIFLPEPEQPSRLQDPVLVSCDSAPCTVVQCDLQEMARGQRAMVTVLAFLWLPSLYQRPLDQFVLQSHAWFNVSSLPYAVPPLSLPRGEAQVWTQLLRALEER
T3 sequence (P05106 27-718 limits assumed): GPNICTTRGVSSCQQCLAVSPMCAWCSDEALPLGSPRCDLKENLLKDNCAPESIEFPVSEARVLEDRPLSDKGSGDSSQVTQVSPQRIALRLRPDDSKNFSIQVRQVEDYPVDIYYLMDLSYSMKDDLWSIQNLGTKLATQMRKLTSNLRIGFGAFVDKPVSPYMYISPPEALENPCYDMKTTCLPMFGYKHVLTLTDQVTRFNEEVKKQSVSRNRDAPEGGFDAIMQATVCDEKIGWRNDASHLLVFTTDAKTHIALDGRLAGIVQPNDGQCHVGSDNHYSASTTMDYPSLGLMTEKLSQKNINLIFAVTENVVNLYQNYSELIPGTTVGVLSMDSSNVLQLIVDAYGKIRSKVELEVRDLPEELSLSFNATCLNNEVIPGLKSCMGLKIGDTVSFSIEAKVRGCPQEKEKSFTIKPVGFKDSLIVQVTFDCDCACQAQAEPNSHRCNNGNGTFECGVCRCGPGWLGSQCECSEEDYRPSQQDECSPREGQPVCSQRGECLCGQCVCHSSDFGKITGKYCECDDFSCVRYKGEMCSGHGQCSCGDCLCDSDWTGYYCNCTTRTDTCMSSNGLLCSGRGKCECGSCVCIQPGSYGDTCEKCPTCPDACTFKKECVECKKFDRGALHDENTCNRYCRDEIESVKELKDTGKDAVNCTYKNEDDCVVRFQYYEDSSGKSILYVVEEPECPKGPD
T2 sequence (P08648 42-995 limits assumed): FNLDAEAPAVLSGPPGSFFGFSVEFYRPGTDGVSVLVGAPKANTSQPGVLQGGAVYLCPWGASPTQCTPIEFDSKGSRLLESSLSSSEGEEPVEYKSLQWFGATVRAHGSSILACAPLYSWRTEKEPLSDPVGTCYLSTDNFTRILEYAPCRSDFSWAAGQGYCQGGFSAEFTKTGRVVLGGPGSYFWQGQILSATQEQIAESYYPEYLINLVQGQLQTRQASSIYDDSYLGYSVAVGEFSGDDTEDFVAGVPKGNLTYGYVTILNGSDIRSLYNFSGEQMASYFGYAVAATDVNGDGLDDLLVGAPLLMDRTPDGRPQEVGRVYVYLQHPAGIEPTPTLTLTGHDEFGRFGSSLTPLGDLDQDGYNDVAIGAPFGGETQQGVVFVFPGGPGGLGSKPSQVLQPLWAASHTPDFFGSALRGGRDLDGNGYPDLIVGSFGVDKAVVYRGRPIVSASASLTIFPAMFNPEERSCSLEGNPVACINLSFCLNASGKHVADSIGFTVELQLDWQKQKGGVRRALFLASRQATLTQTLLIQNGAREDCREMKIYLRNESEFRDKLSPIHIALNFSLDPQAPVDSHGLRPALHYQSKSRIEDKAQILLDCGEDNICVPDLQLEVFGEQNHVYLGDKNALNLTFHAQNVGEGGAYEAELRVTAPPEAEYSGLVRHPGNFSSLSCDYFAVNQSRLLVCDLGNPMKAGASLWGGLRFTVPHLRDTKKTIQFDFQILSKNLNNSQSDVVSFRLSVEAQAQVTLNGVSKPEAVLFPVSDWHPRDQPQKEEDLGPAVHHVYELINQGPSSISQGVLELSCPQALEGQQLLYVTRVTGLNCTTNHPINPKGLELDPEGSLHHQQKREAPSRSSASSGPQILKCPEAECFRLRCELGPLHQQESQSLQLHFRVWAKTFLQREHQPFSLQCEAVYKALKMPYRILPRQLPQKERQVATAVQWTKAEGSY
T2 sequence (P05556 21-728 limits assumed): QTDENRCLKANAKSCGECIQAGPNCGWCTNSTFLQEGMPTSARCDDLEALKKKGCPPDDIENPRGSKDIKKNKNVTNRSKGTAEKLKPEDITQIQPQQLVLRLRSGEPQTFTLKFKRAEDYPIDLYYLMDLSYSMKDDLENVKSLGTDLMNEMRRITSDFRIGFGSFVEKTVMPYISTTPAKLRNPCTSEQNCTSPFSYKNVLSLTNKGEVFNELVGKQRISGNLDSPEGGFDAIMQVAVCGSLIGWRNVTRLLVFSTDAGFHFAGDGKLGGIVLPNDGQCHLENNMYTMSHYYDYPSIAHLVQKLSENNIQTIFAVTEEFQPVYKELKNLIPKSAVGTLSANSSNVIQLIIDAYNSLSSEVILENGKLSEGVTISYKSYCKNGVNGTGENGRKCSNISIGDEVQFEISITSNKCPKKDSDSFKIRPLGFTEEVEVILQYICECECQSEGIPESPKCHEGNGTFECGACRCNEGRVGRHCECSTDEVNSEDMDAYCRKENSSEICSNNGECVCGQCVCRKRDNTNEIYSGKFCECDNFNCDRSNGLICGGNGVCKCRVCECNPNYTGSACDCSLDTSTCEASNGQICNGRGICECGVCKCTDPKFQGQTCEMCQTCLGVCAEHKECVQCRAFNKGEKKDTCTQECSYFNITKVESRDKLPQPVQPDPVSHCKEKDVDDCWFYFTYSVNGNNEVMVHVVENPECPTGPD
T4 sequence (P06756 31-992 limits assumed): as the sequence (P06756 31-992 limits assumed) above
T4 sequence (P05106 27-718 limits assumed): as the sequence (P05106 27-718 limits assumed) above

## 4-[^18F]-fluorobenzoyl cyclic (RGDY(OMe)K) [[^18F]-C7]
[1]
  uptake in PET images: distinct areas of [^18F]-C7 uptake in the lower region of the mouse
[2]
  tumor to organ ratio, heart: 5.83
  tumor to organ ratio, lung: 2.33
  tumor to organ ratio, muscle: 11.67
  tumor to organ ratio, skin: 1.6

## COc1ccc(C[C@@H]2NC(=O)[C@H](CC(=O)O)NC(=O)CNC(=O)[C@H](CCCNC(=N)N)NC(=O)[C@H](CCCCNC(=O)c3ccc(F)cc3)NC2=O)cc1 [C7, 4-[^19F]-fluorobenzoyl cyclic (RGDY(OMe)K)]
αvβ5 integrin; 2 μM peptide, 100% = signal without peptide
  vitronectin binding to αvβ5, % of the maximum signal: 26.1%
αvβ5 integrin; text b200, read-out: IC50 for αvβ5
  IC50: 1.69 µM
α5β1 integrin; 2 μM peptide
  fibronectin binding to α5β1, % of the maximum signal: 47%
α5β1 integrin; text b200, read-out: IC50 for α5β1
  IC50: 0.481 µM

## N=C(N)NCCC[C@@H]1NC(=O)[C@H](CCCCNC(=O)c2ccc(F)cc2)NC(=O)[C@@H](Cc2ccccc2)NC(=O)[C@H](CC(=O)O)NC(=O)CNC1=O [C10]
αIIbβ3 integrin; 200 nM peptide
  fibrinogen binding to αIIbβ3: 42.1%
αIIbβ3 integrin; 2 μM peptide
  fibrinogen binding to αIIbβ3, % of the maximum signal: 21.9%
αIIbβ3 integrin; Table 2, no unit printed (b200 gives same values in μM)
  IC50: 1.23 µM
αvβ5 integrin; Table 2, no unit printed (b200 gives same values in μM), read-out: Mean IC50, αvβ5
  IC50: 6.01 µM
α5β1 integrin; Table 2, no unit printed (b200 gives same values in μM), read-out: Mean IC50, α5β1
  IC50: 1.37 µM
αvβ3 integrin
  IC50: 0.018 µM
